How the values were obtained:
Assay in all cases: IC50 cell viability (Alamar Blue, 96 h)
[1] = test system: 11060
Protocol: (§1)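 Cells in log-phase growth were seeded in 96-well plates and treated with drug for 96 h at 37°C using 8-point serial dilutions from 0.0025 to 10 µM. Viability was read by Alamar Blue fluorescence after 6 h and normalised to positive and vehicle (DMSO) controls. IC50 values were fitted in ActivityBase; the value given is the mean of two independent experiments.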

[2] = test system: WI-38
Protocol: as §1

[3] = test system: PER-624
Protocol: as §1

[4] = test system: TY82
Protocol: as §1

[5] = test system: HCC2429
Protocol: as §1

[6] = test system: 10326
Protocol: as §1

[7] = test system: PER-891
Protocol: as §1

[8] = test system: TC797
Protocol: as §1

[9] = test system: PER-403
Protocol: as §1

[10] = test system: 14169
Protocol: as §1

[11] = test system: CAKI-1
Protocol: as §1

[12] = test system: RPMI2650
Protocol: as §1

[13] = test system: HS-27
Protocol: as §1

[14] = test system: PER-704
Protocol: as §1

[15] = test system: PER-536
Protocol: as §1

[16] = test system: P896-CL
Protocol: as §1

[17] = test system: 8645
Protocol: as §1

[18] = test system: PER-535
Protocol: as §1

[19] = test system: PER-712
Protocol: as §1

[20] = test system: A549
Protocol: as §1

IC50 cell viability [5] [nM]	IC50 cell viability [20] [nM]	Structure (SMILES)	IC50 cell viability [1] [nM]	IC50 cell viability [2] [nM]	IC50 cell viability [3] [nM]	IC50 cell viability [4] [nM]	IC50 cell viability [6] [nM]	IC50 cell viability [7] [nM]	IC50 cell viability [8] [nM]	IC50 cell viability [9] [nM]	IC50 cell viability [10] [nM]	IC50 cell viability [11] [nM]	IC50 cell viability [12] [nM]	IC50 cell viability [13] [nM]	IC50 cell viability [14] [nM]	IC50 cell viability [15] [nM]	IC50 cell viability [16] [nM]	IC50 cell viability [17] [nM]	IC50 cell viability [18] [nM]	IC50 cell viability [19] [nM]
7.26	6.42	Cc1csc(-c2nnc(Nc3ccc(Oc4ncccc4-c4ccnc(N)n4)cc3)c3ccccc23)c1 [AMG-900]	98.1	7360	> 10000	> 10000	3.75	> 10000	> 10000	< 2.5	3.94	> 10000	> 10000	> 10000	> 10000	> 10000	5020	> 10000	112	> 10000
229	249	COc1cc(Nc2ncc3c(n2)-c2ccc(Cl)cc2C(c2c(F)cccc2OC)=NC3)ccc1C(=O)O [Alisertib]	168	6140	873	> 10000	149	> 10000	> 10000	38.1	67.8	8100	> 10000	5390	4880	1580	2410	327	37.4	306
20.9	203	CCN(CCCOc1ccc2c(Nc3cc(CC(=O)Nc4cccc(F)c4)[nH]n3)ncnc2c1)CCOP(=O)(O)O [Barasertib]	37.6	6910	> 10000	> 10000	11.7	> 10000	> 10000	19.4	7.07	> 10000	> 10000	1900	> 10000	> 10000	5010	986	> 10000	> 10000
51.1	13.1	COc1cccc2c1C(=O)c1c(O)c3c(c(O)c1C2=O)C[C@@](O)(C(C)=O)C[C@@H]3O[C@H]1C[C@H](N)[C@H](O)[C@H](C)O1 [Daunorubicin]	29.5	87.8	22	227	42.1	475	153	14.9	9.69	1030	285	90.1	110	339	201	12.2	218	384
96.9	16.5	C[C@H]1O[C@@H](O[C@H]2[C@@H](O)C[C@H](O[C@H]3[C@@H](O)C[C@H](O[C@H]4CC[C@@]5(C)[C@H](CC[C@@H]6[C@@H]5C[C@@H](O)[C@]5(C)[C@@H](C7=CC(=O)OC7)CC[C@]65O)C4)O[C@@H]3C)O[C@@H]2C)C[C@H](O)[C@@H]1O [Digoxin]	86.2	34	99.7	83.7	41.5	103	226	57.7	52	323	97.6	58.9	200	598	158	82.5	218	299

— the supplement of paper PMC5762512
